In general, IC50 refers to the concentration at which inhibition is half-maximal.

In US11091478B2 (Fochon Pharmaceuticals, Ltd., priority 2017, dated 2021) one finds IC50 data, which are given here for 14 molecules.

The subject of one assay is DOHH2 cells. The assay is described as follows: Cell proliferation assay (MTS), DOHH2 cells, 120 h. It is filed as cell-based. The note with it: Homo sapiens, DOHH-2, 120 h. Summed up:
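Cells in RPMI-1640 with 10% FBS were seeded at 5000/well, left overnight at 37° C., 5% CO2, then exposed to compound at 10000 down to 1.5 nM (nine concentrations) for 72 h (RS4;11) or 120 h (DOHH2). Viability was read by MTS, 2 h, absorbance at 490/650 nm; IC50 calculated.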

For another assay, the system named is RS4;11 cells. The assay is described as follows: Cell proliferation assay (MTS), RS4;11 cells, 72 h. It is filed as cell-based. Conditions: Homo sapiens, RS4-11, 72 h. From the text: Cell Proliferation Assays
MTS testing kit was purchased from Promega. The RPMI-1640, Fetal bovine serum and Penicillin-Streptomycin were purchased from Gibco. Dimethyl sulfoxide (DMSO) was purchased from Sigma.
To investigate whether a compound is able to inhibit the activity of BCL-2 in cells, a mechanism-based assay using DOHH2 (DSMZ No.® ACC 47) and RS4;11 (ATCC® CRL-1873™) cell was developed. In this assay, inhibition of Bcl-2 was detected by the inhibition of DOHH2 cells proliferation. DOHH2 cells were cultured in culture flasks to 40-80% confluence in RPMI-1640 plus 10% fetal bovine serum. Cells were collected and plated onto 96-well plates at desired cell density (5000 cells/well). Plates were incubated overnight at 37° C., with 5% CO2 to adhere. Compounds were added to the plates, and the final compound concentrations were 10000, 3333, 1111, […], 124, 41, 14, 4.6 and 1.5 nM. Plates plated with DOHH2 or RS4;11 cells were placed at 37° C., with 5% CO2 for 120 h (DOHH2) or 72 h (RS4;11) respectively. 20 μl MTS/100 μl medium mixture solution were added to each well and incubate the plates for exactly 2 hours. The reaction was stopped by adding 25 μl 10% SDS per well. Measure absorbance at 490 nm and 650 nm (reference wavelength). IC50 was calculated using GraphPad Prism 5.0.
Select compounds prepared as described above were assayed according to the biological procedures described herein.

In the case of `CC1(C)CCC(CN2CCN(c3ccc(C(=O)NS(=O)(=O)c4cc5c(c([N+](=O)[O-])c4)N[C@@H](CCN=S4(=O)CCOCC4)CO5)c(Oc4cnc5[nH]ccc5c4)c3)CC2)=C(c2ccc(Cl)cc2)C1` [Example 2-78, (S)-2-((1H-pyrrolo[2,3-b]pyridin-5-yl)oxy)-4-(4-((4′-chloro-5,5-dimethyl-3,4,5,6-tetra-hydro-[1,1′-biphenyl]-2-yl)methyl)piperazin-1-yl)-N-((5-nitro-3-(2-((4-oxido-1,4λ^6-ox-athian-4-ylidene)amino)ethyl)-3,4-dihydro-2H-benzo[b][1,4]oxazin-7-yl)sulfonyl)ben-zamide], the half-maximal inhibitory concentration (IC50) in the assay with DOHH2 cells was found to be 15 nM; with RS4;11 cells, 6 nM.

In the case of `COCC[C@H]1COc2cc(S(=O)(=O)NC(=O)c3ccc(N4CCN(CC5=C(c6ccc(Cl)cc6)CC(C)(C)CC5)CC4)cc3Oc3cnc4[nH]ccc4c3)cc([N+](=O)[O-])c2N1` [Example 2-118, (S)-2-((1H-pyrrolo[2,3-b]pyridin-5-yl)oxy)-4-(4-((4′-chloro-5,5-dimethyl-3,4,5,6-tetra-hydro-[1,1′-biphenyl]-2-yl)methyl)piperazin-1-yl)-N-((3-(2-methoxyethyl)-5-nitro-3,4-dihydro-2H-benzo[b][1,4]oxazin-7-yl)sulfonyl)benzamide], the IC50 with DOHH2 cells came out at 649 nM; in the assay on RS4;11 cells, 11 nM.

For the molecule `CN1CCN(CC[C@H]2CSc3cc(S(=O)(=O)NC(=O)c4ccc(N5CCN(CC6=C(c7ccc(Cl)cc7)CC(C)(C)CC6)CC5)cc4Oc4cnc5[nH]ccc5c4)cc([N+](=O)[O-])c3N2)CC1` [Example 3-19, (S)-2-((1H-pyrrolo[2,3-b]pyridin-5-yl)oxy)-4-(4-((4′-chloro-5,5-dimethyl-3,4,5,6-tetra-hydro-[1,1′-biphenyl]-2-yl)methyl)piperazin-1-yl)-N-((3-(2-(4-methylpiperazin-1-yl)ethyl)-5-nitro-3,4-dihydro-2H-benzo[b][1,4]thiazin-7-yl)sulfonyl)benzamide], the IC50 in the assay on DOHH2 cells came to 6 nM; in the assay with RS4;11 cells, 1 nM.

Turning to `CN1CCN(CC[C@H]2Cc3cc(S(=O)(=O)NC(=O)c4ccc(N5CCN(CC6=C(c7ccc(Cl)cc7)CC(C)(C)CC6)CC5)cc4Oc4cnc5[nH]ccc5c4)cc([N+](=O)[O-])c3N2)CC1` [Example 1-15, (R)-2-((1H-pyrrolo[2,3-b]pyridin-5-yl)oxy)-4-(4-((4′-chloro-5,5-dimethyl-3,4,5,6-tetrahydro-[1,1′-biphenyl]-2-yl)methyl)piper-azin-1-yl)-N-((2-(2-(4-methylpiperazin-1-yl)ethyl)-7-nitroindolin-5-yl)sulfonyl) benzamide], the half-maximal inhibitory concentration (IC50) in the assay with DOHH2 cells is 50 nM; in the assay with RS4;11 cells, 15 nM.

With `COC[C@@H]1CSc2cc(S(=O)(=O)NC(=O)c3ccc(N4CCN(CC5=C(c6ccc(Cl)cc6)CC(C)(C)CC5)CC4)cc3Oc3cnc4[nH]ccc4c3)cc([N+](=O)[O-])c2N1` [Example 3-6, (R)-2-((1H-pyrrolo[2,3-b]pyridin-5-yl)oxy)-4-(4-((4′-chloro-5,5-dimethyl-3,4,5,6-tetra-hydro-[1,1′-biphenyl]-2-yl)methyl)piperazin-1-yl)-N-((3-(methoxymethyl)-5-nitro-3,4-dihydro-2H-benzo[b][1,4]thiazin-7-yl)sulfonyl)benzamide], the IC50 is 14 nM in the assay on DOHH2 cells and 8 nM in the assay with RS4;11 cells.

`CC(=O)N1CCN(C[C@H]2COc3cc(S(=O)(=O)NC(=O)c4ccc(N5CCN(CC6=C(c7ccc(Cl)cc7)CC(C)(C)CC6)CC5)cc4Oc4cnc5[nH]ccc5c4)cc([N+](=O)[O-])c3N2)CC1` [Example 2-96, (S)-2-((1H-pyrrolo[2,3-b]pyridin-5-yl)oxy)-N-((3-((4-acetylpiperazin-1-yl)methyl)-5-nitro-3,4-dihydro-2H-benzo[b][1,4]oxazin-7-yl)sulfonyl)-4-(4-((4′-chloro-5,5-dimethyl-3,4,5,6-tetrahydro-[1,1′-biphenyl]-2-yl)meth-yl)piperazin-1-yl)benzamide]: the half-inhibitory concentration (IC50) in the assay on DOHH2 cells worked out at 85 nM; with RS4;11 cells, 72 nM.

With `CC1(C)CCC(CN2CCN(c3ccc(C(=O)NS(=O)(=O)c4cc5c(c([N+](=O)[O-])c4)N[C@H](CC#N)CO5)c(Oc4cnc5[nH]ccc5c4)c3)CC2)=C(c2ccc(Cl)cc2)C1` [Example 2-144, (R)-2-((1H-pyrrolo[2,3-b]pyridin-5-yl)oxy)-4-(4-((4′-chloro-5,5-dimethyl-3,4,5,6-tetra-hydro-[1,1′-biphenyl]-2-yl)methyl)piperazin-1-yl)-N-((3-(cyanomethyl)-5-nitro-3,4-di-hydro-2H-benzo[b][1,4]oxazin-7-yl)sulfo-nyl)benzamide], the half-maximal inhibitory concentration (IC50) is 14 nM in the assay with DOHH2 cells and 3 nM in the assay on RS4;11 cells.

For the molecule `CC1(C)CCC(CN2CCN(c3ccc(C(=O)NS(=O)(=O)c4cc5c(c([N+](=O)[O-])c4)N[C@@H](CN4CCOCC4)CS5)c(Oc4cnc5[nH]ccc5c4)c3)CC2)=C(c2ccc(Cl)cc2)C1` [Example 3-10, (S)-2-((1H-pyrrolo[2,3-b]pyridin-5-yl)oxy)-4-(4-((4′-chloro-5,5-dimethyl-3,4,5,6-tetra-hydro-[1,1′-biphenyl]-2-yl)methyl)piperazin-1-yl)-N-((3-(morpholinomethyl)-5-nitro-3,4-dihydro-2H-benzo[b][1,4]thiazin-7-yl)sulfonyl)benzamide], the IC50 is 32 nM in the assay on DOHH2 cells and 11 nM in the assay on RS4;11 cells.

For the molecule `CC(=O)N1CCN(C[C@@H]2COc3cc(S(=O)(=O)NC(=O)c4ccc(N5CCN(CC6=C(c7ccc(Cl)cc7)CC(C)(C)CC6)CC5)cc4Oc4cnc5[nH]ccc5c4)cc([N+](=O)[O-])c3N2)CC1` [Example 2-91, (R)-2-((1H-pyrrolo[2,3-b]pyridin-5-yl)oxy)-N-((3-((4-acetylpiperazin-1-yl)methyl)-5-nitro-3,4-dihydro-2H-benzo[b][1,4]oxazin-7-yl)sulfonyl)-4-(4-((4′-chloro-5,5-dimethyl-3,4,5,6-tetrahydro-[1,1′-biphenyl]-2-yl)meth-yl)piperazin-1-yl)benzamide], the figures for the half-maximal inhibitory concentration (IC50) in the assay on DOHH2 cells and in the assay on RS4;11 cells were 49 nM and 5 nM, respectively.

On to `CN1CCN(C[C@H]2Cc3cc(S(=O)(=O)NC(=O)c4ccc(N5CCN(CC6=C(c7ccc(Cl)cc7)CC(C)(C)CC6)CC5)cc4Oc4cnc5[nH]ccc5c4)cc([N+](=O)[O-])c3N2)CC1` [Example 1-7, (R)-2-((1H-pyrrolo[2,3-b]pyridin-5-yl)oxy)-4-(4-((4′-chloro-5,5-dimethyl-3,4,5,6-tetra-hydro-[1,1′-biphenyl]-2-yl)methyl)piperazin-1-yl)-N-((2-((4-methylpiperazin-1-yl)meth-yl)-7-nitroindolin-5-yl)sulfonyl)benzamide], for which the IC50 in the assay on DOHH2 cells is 26 nM; in the assay on RS4;11 cells, 3 nM.

Regarding `CC1(C)CCC(CN2CCN(c3ccc(C(=O)NS(=O)(=O)c4cc5c(c([N+](=O)[O-])c4)N[C@@H](C(=O)N4CCOCC4)CO5)c(Oc4cnc5[nH]ccc5c4)c3)CC2)=C(c2ccc(Cl)cc2)C1` [Example 2-103], the results for the IC50 in the assay with DOHH2 cells and in the assay with RS4;11 cells were 490 nM and 16 nM, respectively.

Turning to `C[C@H]1COc2cc(S(=O)(=O)NC(=O)c3ccc(N4CCN(CC5=C(c6ccc(Cl)cc6)CC(C)(C)CC5)CC4)cc3Oc3cnc4[nH]ccc4c3)cc([N+](=O)[O-])c2N1` [Example 2-111, (S)-2-((1H-pyrrolo[2,3-b]pyridin-5-yl)oxy)-4-(4-((4′-chloro-5,5-dimethyl-3,4,5,6-tetra-hydro-[1,1′-biphenyl]-2-yl)methyl)piperazin-1-yl)-N-((3-methyl-5-nitro-3,4-dihydro-2H-benzo[b][1,4]oxazin-7-yl)sulfonyl)benza-mide], the IC50 is 26 nM with DOHH2 cells and 28 nM in the assay with RS4;11 cells.

Turning to `CC1(C)CCC(CN2CCN(c3ccc(C(=O)NS(=O)(=O)c4cc5c(c([N+](=O)[O-])c4)N[C@H](CC4CCOCC4)CO5)c(Oc4cnc5[nH]ccc5c4)c3)CC2)=C(c2ccc(Cl)cc2)C1` [Example 2-181, (R)-2-((1H-pyrrolo[2,3-b]pyridin-5-yl)oxy)-4-(4-((4′-chloro-5,5-dimethyl-3,4,5,6-tetra-hydro-[1,1′-biphenyl]-2-yl)methyl)piperazin-1-yl)-N-((5-nitro-3-((tetrahydro-2H-pyran-4-yl)methyl)-3,4-dihydro-2H-benzo[b] [1,4]oxazin-7-yl)sulfonyl)benzamide], the concentration for half-maximal inhibition (IC50) with DOHH2 cells came to 84 nM; with RS4;11 cells it was 45 nM.

As for `CC1(C)CCC(CN2CCN(c3ccc(C(=O)NS(=O)(=O)c4cc5c(c([N+](=O)[O-])c4)N[C@@H](CCN4CC(O)C4)CO5)c(Oc4cnc5[nH]ccc5c4)c3)CC2)=C(c2ccc(Cl)cc2)C1` [Example 2-44, (S)-2-((1H-pyrrolo[2,3-b]pyridin-5-yl)oxy)-4-(4-((4′-chloro-5,5-dimethyl-3,4,5,6-tetra-hydro-[1,1′-biphenyl]-2-yl)methyl)piperazin-1-yl)-N-((3-(2-(3-hydroxyazetidin-1-yl)eth-yl)-5-nitro-3,4-dihydro-2H-benzo[b][1,4]oxazin-7-yl)sulfonyl)benzamide], the figures for the IC50 in the assay on DOHH2 cells and in the assay on RS4;11 cells were 51 nM and 46 nM, respectively.
